This is an account of results in ChEMBL document CHEMBL1149931, “4-(2-pyridyl)-2,2-dimethylnaphthalen-1-ones as new potassium channel activators with increased airways selectivity” (Bioorg Med Chem Lett, 1995).

The species entered for assay [1] is Cavia porcellus. Kind of assay: Concentration required to inhibit spontaneous tone of guinea pig isolated tracheal spirals. Format: functional. The following applies: Trachea.
The species entered for assay [2] is Rattus norvegicus. Kind of assay: Percent inhibition of NA-induced contractions in rat portal vein at 10 uM was evaluated. The assay is classed as functional. The settings on record: for inhibition at 10 µM: Rattus norvegicus.
For assay [3], the species on record is Cavia porcellus. Kind of assay: Compound was evaluated for its hypotensive activity (decrease in blood pressure) in male guinea pigs. The assay is classed as functional.
The subject of assay [4] is Cavia porcellus. Description: Compound was evaluated in vivo for its ability to inhibit methacholine induced bronchospasm in male guinea pig. Format: functional.
The species named for assay [5] is Rattus norvegicus. Description: Concentration required to inhibit NA-induced contractions in rat portal vein by 50%. The assay is classed as functional.
The species entered for assay [6] is Rattus norvegicus. Kind of assay: Compound was evaluated for its hypotensive activity (decrease in blood pressure) in normotensive rats. Format: functional.
The test system of assay [7] is Rattus norvegicus. Description: Changes in systolic blood pressure was measured at intervals of 1 hr for 4 hr after oral administration of 0.1 mg/kg in rats. The assay is classed as functional, Artery.

Bounds are passed on as bounds.

What is called IC50 is the point on the concentration scale where inhibition reaches its midpoint. Low values mean higher potency, high ones lower potency. Broadly, the inhibition is the change of the read-out against control, counted positive when it falls. A low value points to little suppression. Regarding `CC1(C)CC(O)(c2cccc[n+]2[O-])c2cc(C#N)ccc2C1=O` (stereo not drawn), 7300 nM corresponded to half-maximal inhibition in the assay listed under Cavia porcellus [1] (IC50). The same compound showed an inhibition at 10 µM in the assay listed under Rattus norvegicus [2] of 30%.

For the compound `COC1(c2cccc[n+]2[O-])CC(C)(C)C(=O)c2ccc(Br)cc21` (stereo not drawn), the half-inhibitory concentration (IC50) in the assay filed under Cavia porcellus [1] is more than 10000 nM. The inhibition at 10 µM in the assay listed under Rattus norvegicus [2] was 20%.

In the case of `CC1(C)Oc2ccc(C#N)cc2[C@H](N2CCCC2=O)[C@H]1O` (single isomer, unassigned) [(-)-CROMAKALIM], the ED25 in the assay listed under Cavia porcellus [3] worked out at 0.0075 mg/kg; in the assay with Cavia porcellus [4], 0.0162 mg/kg; in the assay filed under Rattus norvegicus [6], 0.0215 mg/kg. The values for the IC50 in the assay listed under Cavia porcellus [1] and in the assay listed under Rattus norvegicus [5] were 280 nM and 100 nM, respectively.

Take `CC1(C)C=C(c2cccc[n+]2[O-])c2cc(C#N)ccc2C1=O`: the ED25 in the assay listed under Cavia porcellus [3] was determined as 0.0647 mg/kg; in the assay on Cavia porcellus [4] it was 0.0303 mg/kg; in the assay listed under Rattus norvegicus [6] it was 0.079 mg/kg. The IC50 in the assay listed under Cavia porcellus [1] turned out to be 200 nM; in the assay listed under Rattus norvegicus [5], 900 nM.

Regarding `CC1(C)C=C(c2cccc[n+]2[O-])c2cc(C(F)(F)C(F)(F)F)ccc2C1=O`, the results for the ED25 in the assay filed under Cavia porcellus [3], in the assay with Cavia porcellus [4] and in the assay listed under Rattus norvegicus [6] were 0.0876 mg/kg, 0.036 mg/kg and 0.776 mg/kg, respectively. Also, the IC50 in the assay filed under Cavia porcellus [1] stood at 110 nM; in the assay listed under Rattus norvegicus [5] it was 590 nM.

In general, ED50 refers to the dose at which the effect has come halfway, by size or by number of responders. A higher ED50 goes with a need for a large dose. Turning to `CC1(C)C=C(c2cccc[n+]2[O-])c2cc(Br)ccc2C1=O`, the ED25 in the assay filed under Cavia porcellus [3] stood at 0.0891 mg/kg; in the assay listed under Rattus norvegicus [6], 0.0877 mg/kg. For the same compound, the 50% effective dose (ED50) in the assay on Cavia porcellus [4] turned out to be 0.148 mg/kg. In addition, the IC50 stood at 230 nM in the assay filed under Cavia porcellus [1] and 810 nM in the assay listed under Rattus norvegicus [5]. The “Max fall in blood pressure” value in the assay with Rattus norvegicus [7] stood at 53 mmHg.

As to `CC1(C)C=C(c2ccccn2)c2cc(Br)ccc2C1=O`, the results for the half-maximal inhibitory concentration (IC50) in the assay listed under Cavia porcellus [1] and in the assay listed under Rattus norvegicus [5] were more than 10000 nM and 48000 nM, respectively.

For the compound `CC1(C)CC(c2cccc[n+]2[O-])c2cc(C#N)ccc2C1=O` (stereo not drawn), the IC50 is 2500 nM in the assay listed under Cavia porcellus [1] and 160 nM in the assay filed under Rattus norvegicus [5]. Also, in the assay on Rattus norvegicus [7], the “Max fall in blood pressure” value worked out at 99.5 mmHg.

A word on the Inhibition: it is the share of the control response that was lost under treatment. A lower Inhibition goes with little suppression. `CC1(C)C(=O)c2ccc(Br)cc2C2(c3cccc[n+]3[O-])OC12` (stereo not drawn): the half-inhibitory concentration (IC50) in the assay listed under Cavia porcellus [1] is 1700 nM. In the assay listed under Rattus norvegicus [2], this compound gave an Inhibition of 12%.

Take `CC1(C)C=C(c2cccc[n+]2[O-])c2cc(Cl)c(Cl)cc2C1=O`: the ED25 in the assay listed under Cavia porcellus [3] came to 0.0933 mg/kg; in the assay filed under Rattus norvegicus [6], 0.079 mg/kg. For the same compound, the ED50 in the assay on Cavia porcellus [4] amounted to 0.0912 mg/kg. Besides, the half-inhibitory concentration (IC50) in the assay listed under Cavia porcellus [1] amounted to 210 nM; in the assay listed under Rattus norvegicus [5], 470 nM. For the same compound, the “Max fall in blood pressure” value in the assay on Rattus norvegicus [7] was determined as 74 mmHg.
